Measurements from PubChem BioAssay AID1963427 (Molecular Pharmacology Branch, DTP, NCI, 2024).

Tested on: 317291-083-R-J1-PDC complex spheroid growth
Assay: Anticancer human tumor 317291-083-R-J1-PDC patient-derived soft tissue sarcoma cell line growth inhibition [Asc]
Conditions: for IC50: curve of first compound; for viability, T/C: stronger effect = lower value
How it was run: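 Complex solid-tumor spheroids incorporating human endothelial and mesenchymal stem cells received single agents or combinations over half-log dilution ranges anchored to clinical Cmax.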

[1] = second compound 0.0316 µM, first compound 0.00316 µM
[2] = second compound 0.0316 µM, first compound 0.01 µM
[3] = second compound 0.0316 µM, first compound 0.0316 µM
[4] = second compound 0.0316 µM, first compound 0.1 µM
[5] = second compound 0.0316 µM, first compound 0.316 µM
[6] = second compound 0.0316 µM, first compound 1 µM
[7] = second compound 0.1 µM, first compound 0.00316 µM
[8] = second compound 0.1 µM, first compound 0.01 µM
[9] = second compound 0.1 µM, first compound 0.0316 µM
[10] = second compound 0.1 µM, first compound 0.1 µM
[11] = second compound 0.1 µM, first compound 0.316 µM
[12] = second compound 0.1 µM, first compound 1 µM
[13] = second compound 0.316 µM, first compound 0.00316 µM
[14] = second compound 0.316 µM, first compound 0.01 µM
[15] = second compound 0.316 µM, first compound 0.0316 µM
[16] = second compound 0.316 µM, first compound 0.1 µM
[17] = second compound 0.316 µM, first compound 0.316 µM
[18] = second compound 0.316 µM, first compound 1 µM
[19] = second compound 1 µM, first compound 0.00316 µM
[20] = second compound 1 µM, first compound 0.01 µM
[21] = second compound 1 µM, first compound 0.0316 µM
[22] = second compound 1 µM, first compound 0.1 µM
[23] = second compound 1 µM, first compound 0.316 µM
[24] = second compound 1 µM, first compound 1 µM
[25] = second compound 3.16 µM, first compound 0.00316 µM
[26] = second compound 3.16 µM, first compound 0.01 µM
[27] = second compound 3.16 µM, first compound 0.0316 µM
[28] = second compound 3.16 µM, first compound 0.1 µM
[29] = second compound 3.16 µM, first compound 0.316 µM
[30] = second compound 3.16 µM, first compound 1 µM
[31] = second compound 10 µM, first compound 0.00316 µM
[32] = second compound 10 µM, first compound 0.01 µM
[33] = second compound 10 µM, first compound 0.0316 µM
[34] = second compound 10 µM, first compound 0.1 µM
[35] = second compound 10 µM, first compound 0.316 µM
[36] = second compound 10 µM, first compound 1 µM
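Also: compound exposure lasted seven days after spheroids formed for three days.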
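For viability, T/C in this document: 100% = DMSO vehicle control wells.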

CCN1CCN(Cc2ccc(Nc3ncc(F)c(-c4cc(F)c5nc(C)n(C(C)C)c5c4)n3)nc2)CC1 + Cc1c(S(C)(=O)=O)c(-c2cc(F)cc(N3CCN(c4ccc(NS(=O)(=O)c5ccc(NC(CCN6CCC(C(=O)OCCCP(=O)(O)O)CC6)CSc6ccccc6)c(S(=O)(=O)C(F)(F)F)c5)cc4)CC3)c2)c(-c2ccc(Cl)cc2)n1C(C)C
IC50 (second compound 0.0316 µM): 871 nM
IC50 (second compound 0.1 µM): 647 nM
IC50 (second compound 0.316 µM): 402 nM
IC50 (second compound 1 µM): 373 nM
IC50 (second compound 3.16 µM): 242 nM
IC50 (second compound 10 µM): 372 nM
viability, T/C [1]: 97.4%
viability, T/C [2]: 105%
viability, T/C [3]: 87%
viability, T/C [4]: 87.2%
viability, T/C [5]: 70%
viability, T/C [6]: 46.8%
viability, T/C [7]: 113%
viability, T/C [8]: 85.7%
viability, T/C [9]: 90.4%
viability, T/C [10]: 74%
viability, T/C [11]: 63.6%
viability, T/C [12]: 41%
viability, T/C [13]: 94.1%
viability, T/C [14]: 80.5%
viability, T/C [15]: 77.8%
viability, T/C [16]: 62.1%
viability, T/C [17]: 66.6%
viability, T/C [18]: 26.7%
viability, T/C [19]: 87.2%
viability, T/C [20]: 88%
viability, T/C [21]: 67.8%
viability, T/C [22]: 88.2%
viability, T/C [23]: 54%
viability, T/C [24]: 25.9%
viability, T/C [25]: 75.8%
viability, T/C [26]: 80.5%
viability, T/C [27]: 73.5%
viability, T/C [28]: 63.7%
viability, T/C [29]: 46%
viability, T/C [30]: 24.9%
viability, T/C [31]: 82.7%
viability, T/C [32]: 90.5%
viability, T/C [33]: 96.3%
viability, T/C [34]: 78.7%
viability, T/C [35]: 54.6%
viability, T/C [36]: 25.7%

Cn1ncnc1[C@H]1c2n[nH]c(=O)c3cc(F)cc(c23)N[C@@H]1c1ccc(F)cc1 + Cc1c(S(C)(=O)=O)c(-c2cc(F)cc(N3CCN(c4ccc(NS(=O)(=O)c5ccc(NC(CCN6CCC(C(=O)OCCCP(=O)(O)O)CC6)CSc6ccccc6)c(S(=O)(=O)C(F)(F)F)c5)cc4)CC3)c2)c(-c2ccc(Cl)cc2)n1C(C)C
IC50 (second compound 0.0316 µM): > 100 nM
IC50 (second compound 0.1 µM): > 100 nM
IC50 (second compound 0.316 µM): 81 nM
IC50 (second compound 1 µM): 49.7 nM
IC50 (second compound 3.16 µM): 55 nM
IC50 (second compound 10 µM): 32.5 nM
viability, T/C (second compound 0.0316 µM, first compound 0.000316 µM): 93.2%
viability, T/C (second compound 0.0316 µM, first compound 0.001 µM): 91.5%
viability, T/C [1]: 78.4%
viability, T/C [2]: 85.6%
viability, T/C [3]: 67.1%
viability, T/C [4]: 56.6%
viability, T/C (second compound 0.1 µM, first compound 0.000316 µM): 91%
viability, T/C (second compound 0.1 µM, first compound 0.001 µM): 90.8%
viability, T/C [7]: 88.1%
viability, T/C [8]: 77.9%
viability, T/C [9]: 64.7%
viability, T/C [10]: 55.5%
viability, T/C (second compound 0.316 µM, first compound 0.000316 µM): 83.2%
viability, T/C (second compound 0.316 µM, first compound 0.001 µM): 74.1%
viability, T/C [13]: 85.5%
viability, T/C [14]: 66.8%
viability, T/C [15]: 63%
viability, T/C [16]: 47.1%
viability, T/C (second compound 1 µM, first compound 0.000316 µM): 78.4%
viability, T/C (second compound 1 µM, first compound 0.001 µM): 77.3%
viability, T/C [19]: 71.2%
viability, T/C [20]: 55.5%
viability, T/C [21]: 63.2%
viability, T/C [22]: 40.4%
viability, T/C (second compound 3.16 µM, first compound 0.000316 µM): 81.5%
viability, T/C (second compound 3.16 µM, first compound 0.001 µM): 65.9%
viability, T/C [25]: 72.3%
viability, T/C [26]: 60.6%
viability, T/C [27]: 57.5%
viability, T/C [28]: 43.4%
viability, T/C (second compound 10 µM, first compound 0.000316 µM): 99.5%
viability, T/C (second compound 10 µM, first compound 0.001 µM): 92.9%
viability, T/C [31]: 71.5%
viability, T/C [32]: 66.2%
viability, T/C [33]: 48.3%
viability, T/C [34]: 41.9%

O=C(c1cc(Cc2n[nH]c(=O)c3ccccc23)ccc1F)N1CCN(C(=O)C2CC2)CC1 + Cc1c(S(C)(=O)=O)c(-c2cc(F)cc(N3CCN(c4ccc(NS(=O)(=O)c5ccc(NC(CCN6CCC(C(=O)OCCCP(=O)(O)O)CC6)CSc6ccccc6)c(S(=O)(=O)C(F)(F)F)c5)cc4)CC3)c2)c(-c2ccc(Cl)cc2)n1C(C)C
IC50 (second compound 0.0316 µM): 6940 nM
IC50 (second compound 0.1 µM): 8290 nM
IC50 (second compound 0.316 µM): 5210 nM
IC50 (second compound 1 µM): 4350 nM
IC50 (second compound 3.16 µM): 5160 nM
IC50 (second compound 10 µM): 5440 nM
viability, T/C [3]: 84.8%
viability, T/C [4]: 72.5%
viability, T/C [5]: 88%
viability, T/C [6]: 75.9%
viability, T/C (second compound 0.0316 µM, first compound 3.16 µM): 68.2%
viability, T/C (second compound 0.0316 µM, first compound 10 µM): 41.5%
viability, T/C [9]: 90%
viability, T/C [10]: 87.3%
viability, T/C [11]: 79.1%
viability, T/C [12]: 84%
viability, T/C (second compound 0.1 µM, first compound 3.16 µM): 70%
viability, T/C (second compound 0.1 µM, first compound 10 µM): 45.9%
viability, T/C [15]: 82.8%
viability, T/C [16]: 80.5%
viability, T/C [17]: 90.2%
viability, T/C [18]: 75.7%
viability, T/C (second compound 0.316 µM, first compound 3.16 µM): 61.8%
viability, T/C (second compound 0.316 µM, first compound 10 µM): 35.3%
viability, T/C [21]: 73.7%
viability, T/C [22]: 98.6%
viability, T/C [23]: 69.1%
viability, T/C [24]: 63.7%
viability, T/C (second compound 1 µM, first compound 3.16 µM): 64.7%
viability, T/C (second compound 1 µM, first compound 10 µM): 27.9%
viability, T/C [27]: 75.7%
viability, T/C [28]: 62.6%
viability, T/C [29]: 61.8%
viability, T/C [30]: 54.1%
viability, T/C (second compound 3.16 µM, first compound 3.16 µM): 67.6%
viability, T/C (second compound 3.16 µM, first compound 10 µM): 30.8%
viability, T/C [33]: 90.6%
viability, T/C [34]: 83.4%
viability, T/C [35]: 95.8%
viability, T/C [36]: 83.2%
viability, T/C (second compound 10 µM, first compound 3.16 µM): 69.1%
viability, T/C (second compound 10 µM, first compound 10 µM): 28.9%

O=C(c1ccc(F)c(F)c1Nc1ccc(I)cc1F)N1CC(O)([C@@H]2CCCCN2)C1 + Cc1c(S(C)(=O)=O)c(-c2cc(F)cc(N3CCN(c4ccc(NS(=O)(=O)c5ccc(NC(CCN6CCC(C(=O)OCCCP(=O)(O)O)CC6)CSc6ccccc6)c(S(=O)(=O)C(F)(F)F)c5)cc4)CC3)c2)c(-c2ccc(Cl)cc2)n1C(C)C
IC50 (second compound 0.0316 µM): 419 nM
IC50 (second compound 0.1 µM): 344 nM
IC50 (second compound 0.316 µM): 291 nM
IC50 (second compound 1 µM): 443 nM
IC50 (second compound 3.16 µM): 322 nM
IC50 (second compound 10 µM): 319 nM
viability, T/C [1]: 98.2%
viability, T/C [2]: 96.5%
viability, T/C [3]: 99.2%
viability, T/C [4]: 97.7%
viability, T/C [5]: 60.5%
viability, T/C [6]: 17.5%
viability, T/C [7]: 85.2%
viability, T/C [8]: 81.6%
viability, T/C [9]: 72.2%
viability, T/C [10]: 111%
viability, T/C [11]: 52.9%
viability, T/C [12]: 13.2%
viability, T/C [13]: 85%
viability, T/C [14]: 76.7%
viability, T/C [15]: 75.3%
viability, T/C [16]: 103%
viability, T/C [17]: 47.4%
viability, T/C [18]: 10.6%
viability, T/C [19]: 76.7%
viability, T/C [20]: 85.5%
viability, T/C [21]: 72.6%
viability, T/C [22]: 73%
viability, T/C [23]: 67.3%
viability, T/C [24]: 11.2%
viability, T/C [25]: 74.9%
viability, T/C [26]: 72.7%
viability, T/C [27]: 73%
viability, T/C [28]: 79.4%
viability, T/C [29]: 50.7%
viability, T/C [30]: 9.52%
viability, T/C [31]: 76.9%
viability, T/C [32]: 92%
viability, T/C [33]: 73%
viability, T/C [34]: 97.9%
viability, T/C [35]: 50.2%
viability, T/C [36]: 16.8%
